Measured values from patent US6461997B1, “Triazole sulfones having herbicidal activity” (Monsanto Technology LLC, priority 1999, dated 2002).

Tests used:
[1] = system: SORHA (johnsongrass (seedling)); assay: Pre-emergence herbicidal activity, warm season; type: in vivo, Sorghum halepense; conditions: GR80 = lowest tested rate (300, 100, 30, 10 g/ha) with 80% or greater inhibition; approx. 14 days after treating; 30/21° C.
Procedure, shortened: (§1)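 Seeds sown in sterilised fertilised topsoil received surface-applied compound in 50:50 acetone/water, typically at 300, 100, 30 and 10 g/ha, then greenhouse-grown at 30/21° C (warm-season species) or 18/13° C (cool-season species). Percent inhibition versus untreated plants was scored at about 14 days, giving GR80; an asterisk marks activity short of 80% at the top rate.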

AMARE (redroot pigweed) = assay: Pre-emergence herbicidal activity, warm season; type: in vivo, Amaranthus retroflexus; conditions: GR80 = lowest tested rate (300, 100, 30, 10 g/ha) with 80% or greater inhibition; approx. 14 days after treating; 30/21° C.
Procedure, shortened: as §1

wheat (TRZAW) = assay: Selectivity test, PPI, cool season crop; type: in vivo, Triticum aestivum; conditions: PPI application
Method: (§2) A pre-prepared topsoil mixture (described above) was placed in a pot and compacted to a depth of 1.0 to 1.25 cm from the top of the pot. Seeds of each of several monocotyledonous and dicotyledonous annual plant species were placed on top of the soil. A sufficient quantity of soil to cover the seeds and level fill the pot was weighed into an open container. A known amount of the test compound was dissolved or suspended in an organic solvent and applied by spraying to this cover soil. The cover soil was thoroughly mixed to distribute the test compound throughout the cover soil, and was then applied as a cover layer over the seeds. Untreated soil was used as a cover layer for control pots. After treatment the plants were placed in a greenhouse where they received 0.64 cm of overhead irrigation. All subsequent watering consisted of a light overhead mist and/or subirrigation as needed for germination and growth. Tables 9 and 10 below relate to warm season plant species which were placed after pre-emergence treatment in a greenhouse with a 30/21° C. day/night temperature regime. Tables 11 and 12 below relates to cool season plant species placed after pre-emergence treatment in a greenhouse or growth chamber with an 18/13° C. day/night temperature regime. Only the compounds of Examples 1, 6, 8, 11, 13 and 15-20 were included in PPI tests.
(§3) Approximately 14 days after planting and treating, the plants were observed and herbicidal efficacy recorded as percent inhibition by comparison with untreated plants.
Additional pre-emergence and PPI tests were conducted by the procedures described above, on warm and cool season weed species in the presence of crop species, to assess herbicidal selectivity. Crop species included in warm season tests were corn (Zea mays, ZEAMX), rice (Oryza sativa, ORYSA) and soybean (Glycine max, GLYMX). Crop species included in cool season tests were wheat (Triticum aestivum, TRZAW), barley (Hordeunm vulgare, HORVX) and oilseed rape (Brassica napus, BRSNS).
Tables 15 and 16 relate to pre-emergence and PPI tests respectively on warm season species. Table 17 relates to pre-emergence tests on cool season species.

[2] = system: LAMPU (purple deadnettle); assay: Pre-plant incorporated (PPI) herbicidal activity, cool season; type: in vivo, Lamium purpureum; conditions: for PPI activity GR80, LAMPU: pre-plant incorporated, lowest tested rate with 80% or greater inhibition, about 14 days; for Percent inhibition LAMPU: weed, PPI application
Method: (§4) In another set of tests, the pre-plant incorporated (PPI) activity of compounds of this invention was evaluated on the same species as for the pre-emergence tests described above. In the PPI tests the following procedure, designed to simulate PPI application, was used.
as §2, §3

PANDI (fall panicum) = assay: Pre-emergence herbicidal activity, warm season; type: in vivo, Panicum dichotomiflorum; conditions: GR80 = lowest tested rate (300, 100, 30, 10 g/ha) with 80% or greater inhibition; approx. 14 days after treating; 30/21° C.
Procedure, shortened: as §1

ALOMY (blackgrass) = assay: Pre-plant incorporated (PPI) herbicidal activity, cool season; type: in vivo, Alopecurus myosuroides; conditions: for PPI activity GR80, ALOMY: pre-plant incorporated, lowest tested rate with 80% or greater inhibition, about 14 days; for Percent inhibition ALOMY: weed, PPI application
Method: as §4, §2, §3

ECHCG (barnyardgrass) = assay: Pre-emergence herbicidal activity, warm season; type: in vivo, Echinochloa crus-galli; conditions: GR80 = lowest tested rate (300, 100, 30, 10 g/ha) with 80% or greater inhibition; approx. 14 days after treating; 30/21° C.
Procedure, shortened: as §1

SORVU (shattercane) = assay: Pre-plant incorporated (PPI) herbicidal activity, warm season; type: in vivo, Sorghum vulgare; conditions: for Percent inhibition SORVU: PPI application; for PPI activity GR80, SORVU: pre-plant incorporated, lowest tested rate with 80% or greater inhibition, about 14 days
Method: as §4, §2, §3

SETVI (green foxtail) = assay: Pre-plant incorporated (PPI) herbicidal activity, cool season; type: in vivo, Setaria viridis; conditions: for PPI activity GR80, SETVI: pre-plant incorporated, lowest tested rate with 80% or greater inhibition, about 14 days; for Percent inhibition SETVI: weed, PPI application
Method: as §4, §2, §3

[3] = system: AGSST (creeping bentgrass); assay: Pre-emergence herbicidal activity, cool season; type: in vivo, Agrostis stolonifera; conditions: GR80 = lowest tested rate (300, 100, 30, 10 g/ha) with 80% or greater inhibition; approx. 14 days after treating; 18/13° C.
Procedure, shortened: as §1

[4] = system: BRAPP (broadleaf signalgrass); assay: Pre-emergence herbicidal activity, warm season; type: in vivo, Brachiaria platyphylla; conditions: GR80 = lowest tested rate (300, 100, 30, 10 g/ha) with 80% or greater inhibition; approx. 14 days after treating; 30/21° C.
Procedure, shortened: as §1

Compound | Pre-emergence activity (GR80) SORHA [1] | Percent inhibition TRZAW (wheat (TRZAW); 10 g/ha) | Percent inhibition TRZAW (wheat (TRZAW); 30 g/ha) | Percent inhibition TRZAW (wheat (TRZAW); 100 g/ha) | Percent inhibition TRZAW (wheat (TRZAW); 300 g/ha) | Percent inhibition TRZAW (wheat (TRZAW); 900 g/ha) | PPI activity GR80, LAMPU [2] | Percent inhibition LAMPU ([2]; 10 g/ha) | Percent inhibition LAMPU ([2]; 100 g/ha) | Percent inhibition LAMPU ([2]; 300 g/ha) | Percent inhibition LAMPU ([2]; 900 g/ha) | Pre-emergence activity (GR80) PANDI (PANDI (fall panicum)) | PPI activity GR80, ALOMY (ALOMY (blackgrass)) | Percent inhibition ALOMY (ALOMY (blackgrass); 10 g/ha) | Percent inhibition ALOMY (ALOMY (blackgrass); 30 g/ha) | Percent inhibition ALOMY (ALOMY (blackgrass); 100 g/ha) | Percent inhibition ALOMY (ALOMY (blackgrass); 300 g/ha) | Pre-emergence activity (GR80) ECHCG (ECHCG (barnyardgrass)) | PPI activity GR80, SORVU (SORVU (shattercane)) | PPI activity GR80, SETVI (SETVI (green foxtail)) | other results
CCN(CC)C(=O)n1cnc(S(=O)(=O)C(F)(F)SCC(=O)OC)n1 [Example 11] | 300 g/ha | 0% | 0% | 0% | 0% | 20% | 300 g/ha | 0% | 0% | 0% | 0% | 300 g/ha | 300 g/ha | 0% | 0% | 20% | 45% | * (activity observed, at least at highest rate, but <80% inhibition) | 300 g/ha | 300 g/ha | Pre-emergence activity (GR80) AMARE (AMARE (redroot pigweed)): 100 g/ha; Percent inhibition LAMPU ([2]; 30 g/ha): 0%; Percent inhibition ALOMY (ALOMY (blackgrass); 900 g/ha): 100%; Percent inhibition SORVU (SORVU (shattercane); 10 g/ha): 0%; Percent inhibition SORVU (SORVU (shattercane); 30 g/ha): 0%; Percent inhibition SORVU (SORVU (shattercane); 100 g/ha): 10%; Percent inhibition SORVU (SORVU (shattercane); 300 g/ha): 65%; Percent inhibition SORVU (SORVU (shattercane); 900 g/ha): 100%; Percent inhibition SETVI (SETVI (green foxtail); 10 g/ha): 80%; Percent inhibition SETVI (SETVI (green foxtail); 30 g/ha): 90%; Percent inhibition SETVI (SETVI (green foxtail); 100 g/ha): 99%; Percent inhibition SETVI (SETVI (green foxtail); 300 g/ha): 95%; Percent inhibition SETVI (SETVI (green foxtail); 900 g/ha): 100%
CCN(CC)C(=O)n1cnc(S(=O)(=O)C(F)(F)C(=O)c2ccccc2)n1 [Example 6] | 100 g/ha | – | – | – | – | – | 300 g/ha | – | – | – | – | 300 g/ha | 300 g/ha | – | – | – | – | * (activity observed, at least at highest rate, but <80% inhibition) | 300 g/ha | 300 g/ha | Pre-emergence activity (GR80) AGSST [3]: 100 g/ha; Pre-emergence activity (GR80) BRAPP [4]: * (activity observed, at least at highest rate, but <80% inhibition)
C=C(CC(F)(F)S(=O)(=O)c1ncn(C(=O)N(CC)CC)n1)C[Si](C)(C)C [Example 20] | 300 g/ha | 0% | 0% | 0% | 40% | 60% | 100 g/ha | 90% | 80% | 100% | 95% | 300 g/ha | 100 g/ha | 0% | 0% | 20% | 50% | 300 g/ha | * (activity observed, at least at highest rate, but <80% inhibition) | 30 g/ha | Percent inhibition LAMPU ([2]; 30 g/ha): 60%; Pre-emergence activity (GR80) AGSST [3]: 300 g/ha; Percent inhibition ALOMY (ALOMY (blackgrass); 900 g/ha): 100%; Percent inhibition SORVU (SORVU (shattercane); 10 g/ha): 0%; Percent inhibition SORVU (SORVU (shattercane); 30 g/ha): 0%; Percent inhibition SORVU (SORVU (shattercane); 100 g/ha): 30%; Percent inhibition SORVU (SORVU (shattercane); 300 g/ha): 40%; Percent inhibition SORVU (SORVU (shattercane); 900 g/ha): 100%; Pre-emergence activity (GR80) BRAPP [4]: 300 g/ha; Percent inhibition SETVI (SETVI (green foxtail); 10 g/ha): 0%; Percent inhibition SETVI (SETVI (green foxtail); 30 g/ha): 70%; Percent inhibition SETVI (SETVI (green foxtail); 100 g/ha): 40%; Percent inhibition SETVI (SETVI (green foxtail); 300 g/ha): 100%; Percent inhibition SETVI (SETVI (green foxtail); 900 g/ha): 100%
CCN(CC)C(=O)n1cnc(S(=O)(=O)C(F)(F)SCCOC)n1 [Example 13] | – | 0% | 0% | 20% | 20% | 30% | 30 g/ha | 0% | 0% | 0% | 90% | 300 g/ha | 100 g/ha | 40% | 90% | 99% | 99% | 300 g/ha | 300 g/ha | 100 g/ha | Pre-emergence activity (GR80) AGSST [3]: 100 g/ha; Percent inhibition ALOMY (ALOMY (blackgrass); 900 g/ha): 100%; Percent inhibition SORVU (SORVU (shattercane); 10 g/ha): 0%; Percent inhibition SORVU (SORVU (shattercane); 30 g/ha): 50%; Percent inhibition SORVU (SORVU (shattercane); 100 g/ha): 90%; Percent inhibition SORVU (SORVU (shattercane); 300 g/ha): 100%; Percent inhibition SORVU (SORVU (shattercane); 900 g/ha): 100%; Pre-emergence activity (GR80) BRAPP [4]: 300 g/ha; Percent inhibition SETVI (SETVI (green foxtail); 10 g/ha): 30%; Percent inhibition SETVI (SETVI (green foxtail); 30 g/ha): 95%; Percent inhibition SETVI (SETVI (green foxtail); 100 g/ha): 100%; Percent inhibition SETVI (SETVI (green foxtail); 300 g/ha): 100%; Percent inhibition SETVI (SETVI (green foxtail); 900 g/ha): 100%
